Experimental data as given in patent publication US8904703B2, “Herbicide method and apparatus” (priority 2011, dated 2014).

Columns and labels:
[1] = system: Kudzu vines (pueraria lobata); assay: Field trials of helium gas applied to Kudzu vine root systems through a perforated tube; type: in vivo
From the text: With respect to the helium canister 33, two canisters, each having 0.25 cubic meters of helium gas under a pressure (when full) of at least 260 pounds per square inch (PSI), for a total of 0.5 cubic meters at standard atmospheric pressure and temperature provide a suitable herbicidal effect when the canister 33 (only one of which canisters is shown in the drawing) are applied in sequence in accordance with the invention. […] Naturally, for Kudzu eradication over larger areas, large helium tanks also have been used with great success.
(§1) In operation, the chuck on a battery powered drill (not shown in the drawing) connects the drill to the drill shank 23. The tube 10 is placed near a Kudzu vine stem as that stem protrudes above the earth with the longitudinal tube axis 17 of the tube 10 generally perpendicular to the surface of earth 35 to press drill bit 11 against the soil. Preferably a 1.6 cm diameter black oxide coated drill bit is suitable for this purpose.
(§2) The drill is energized and the torque applied by the drill turns the tube 10 and the drill bit 11, causing the drill bit 11 and the balance of the tube 10 to bore into the earth. The drilling is continued until all of the perforations in the two perforation sets 12A and 22A are well below the surface of the earth, whereupon the drill is deactivated and disconnected from the shank 23.
(§3) A first of the two helium canisters 33 is then coupled through the flexible conduit 32 and the gas adapter 31 to the valve 28. Valve handle 34 is shifted to a valve open position and helium gas flows from the canister 33, through the valve 28 and into the hollow center 24 (FIG. 2) of the tube 10.
Once in the tube 10, under the gas pressure supplied by the helium canister 33, the helium gas disperses into soil 36 surrounding the tube 10 through the perforations in the sets 12A and 22A and migrates in the soil 36 to Kudzu vine root 37. Upon depletion of the helium in the canister 33, the valve handle 34 is shifted to close the valve 28. […]

surrounding plant life = assay: Field trials: effect of the Kudzu vine treatment on surrounding plant life; type: in vivo; details: observed through growth of new grass and new leaf growth
From the text: as §1, §2, §3
Once in the tube 10, under the gas pressure supplied by the helium canister 33, the helium gas disperses into soil 36 surrounding the tube 10 through the perforations in the sets 12A and 22A and migrates in the soil 36 to Kudzu vine root 37. […]

For `[He]` [helium], the “Kudzu vine herbicidal result” value ([1]; Balloon Time helium canisters, helium purity 94% to 96%, two canisters of 0.25 cubic meters applied in sequence) was “produced the desired Kudzu vine herbicidal result”, the “Kudzu destroyed (estimated)” value ([1]; four weeks after exposure to helium, third test site) was about 95% and the Kudzu vines destroyed ([1]; four weeks after exposure to helium, two test sites, about 0.5 cubic meters helium into soil near roots) was “all of the Kudzu vines so treated were destroyed”. For the same compound, the “Effect of Kudzu vine treatment on surrounding plant life” value (surrounding plant life) was “surprisingly beneficial”.
